Where a name gives a salt, the structure may show the parent alone.
How the values were obtained:
PPCL-192 cells [1] = assay: Cell cycle distribution (PI, flow cytometry), PPCL-192; assay type: cell-based, human; conditions: 24 h
Method: (§1) Cell cycle study was performed to determine the effect of 4NSG-SLN on the cell cycle; PPCL-192 and PPCL-46 cells (2 × 10^5 cells per well) were seeded in 6-well plates and cultured using DMEM medium supplemented with 10% FBS10 mM HEPES, 10% FBS, and 1% penicillin/streptomycin were seeded in 6-well plates and incubated at 37 °C. After the cells reached 75% confluence, they were exposed to different concentrations (5 μM,10 μM, and 20 µM) of GemHCl and 4NSG-SLN. After 24 h exposure, cells were harvested, washed with PBS, centrifuged at 300 × g for 5 min, resuspended the pellets in 100 μL of PBS, and passed through a 28 5/8 needle to disperse them into single cells. Fixation and permeation of cells were performed using cold 70% ethanol while vortexing. Cells were then stored at − 20 °C overnight. The cells were resuspended in 0.1 mg/mL RNase, stained with […] PI, and the phase distribution was examined using flow cytometry (FACScalibur-Becton Dickinson).

PPCL-46 cells [2] = assay: Cell cycle distribution (PI, flow cytometry), PPCL-46; assay type: cell-based, human; conditions: 24 h
Method: as §1

PPCL-192 cells [3] = assay: Cell migration (wound) assay, PPCL-192; assay type: cell-based, human; conditions: PPCL-192, 5 µM, 48 h
Method: (§2) A cell migration assay was conducted to determine the effect of 4NSG-SLN on PPCL-192 and PPCL-46 cell motility. The Ibidi cell culture inserts were used to grow the cells into two confluent monolayers separated by a "wound" for this assay. The cells were seeded into 24-well plates at a cell density of 2.5 × 10^5, 48 h at 37 °C. At 75% confluency, cells formed adherent monolayers on either side of the tissue culture insert. Before treatment, the cells were serum-starved by replacing complete media with base media (DMEM) and then further incubated for 48 h. After serum starvation, the inserts were gently removed to generate a gap or "wound" between the two confluent layers of cells, and the monolayers were washed with experimental media. Afterward, cells were exposed to 5 μM concentration of GemHCl and 4NSG-SLN treatments. Images of the cells invading the wound were then captured after 48 h with a Nikon Ti Eclipse microscope.

PPCL-46 cells [4] = assay: Cell migration (wound) assay, PPCL-46; assay type: cell-based, human; conditions: PPCL-46, 5 µM, 48 h
Method: as §2

[5] = system: PCa PDX tumor from White patients; assay: Tumor efficacy in PDX mice bearing tumors from White PCa patients; assay type: in vivo; conditions: 30 mg/kg Gem equivalent i.v. twice weekly for 3 weeks
Source text: The implantation of surgical tumor tissue into immuno-compromised mice was described previously. A viable portion of resected tissue 2 × 2 mm in size was briefly isolated immediately from surgically resected primary PCa specimens (from Blacks and White patients) with care to minimize critical ischemia time. The PCa tissues were then implanted subcutaneously into an 8-week-old mouse (The Jackson Laboratory, Bar Harbor, ME). The xenografts were allowed to grow to a maximum diameter of 1.5 cm before passage and in vitro culture.
Mice-bearing surgically implanted tumors obtained from Black and White patients with sizes of 70–100 mm^3 were randomized into groups as control, GemHCl, and 4NSG-SLN (n = 5/group). Baseline tumor volume was established, and dosing initiation began on day 1 with intravenous administration of 30 mg/kg Gem (twice weekly for 3 weeks) with an equivalent dose of GemHCl and 4NSG-SLN [42]. Once tumors became palpable, their volume was measured thrice per week, and the mice's weight was recorded twice weekly. Tumor volumes were measured using digital calipers and calculated using the following equation: V = (L*(W)^2)/2, where V is the volume (mm^3), W(width) is the smaller of two perpendicular tumor axes, and the L (length) is the larger of two vertical axes. Mean tumor volume growth curves were calculated for each treatment group.

EGFR = assay: Immunohistochemistry of PDX tumor tissue, EGFR; assay type: in vivo, mice; conditions: for EGFR % Moderate Positive Cells / EGFR % Positive / EGFR % Strong Positive Cells / EGFR % Weak Positive Cells / EGFR %Negative Cells / EGFR H Score: IHC
Method: [The source words this procedure for another target and reports this target under the same test.] Tissue samples from mice bearing tumors from Black and White PCa patients post treatments with GemHCl and 4NSG-SLN were excised and immediately washed with PBS, fixed (10% buffered formalin) for 24 h, and transferred to 70% ethanol for histopathological analysis. Histology was performed by HistoWiz Inc. (Histowiz.com) according to manufacturer protocol. Samples were embedded in paraffin, and 4 μm sections were prepared. Immunohistochemistry was performed on a Bond Rx autostainer (Leica Biosystems) with enzyme treatment (1:1000) using standard protocols (https://home.histowiz.com/faq/). Samples were incubated overnight with primary antibodies (Antibodies used were rat monoclonal F4/80 primary antibody (eBioscience, 14–4801, and 1:200), and immunohistochemical staining was done using rabbit anti-rat secondary (Vector Labs, 1:100). Bond Polymer Refine Detection was used per the manufacturer's protocol (Leica Biosystems). After staining, sections were dehydrated and filmed, coverslipped using a Tissue-Tek Prisma coverslip (Sakura). Whole slide scanning (40x) was performed on an Aperio AT2 (Leica Biosystems).

HER2 = assay: Immunohistochemistry of PDX tumor tissue, HER2; assay type: in vivo, mice
[6] = BT PDX tumor tissue after treatment
[7] = BT and WT PDX tumor tissues, 40X
[8] = WT PDX tumor tissue after treatment
[9] = BT PDX tumor tissue after treatment, IHC
[10] = WT PDX tumor tissue after treatment, IHC

## Nc1ccn([C@@H]2O[C@H](CO)[C@@H](O)C2(F)F)c(=O)n1 [GemHCl, Gemcitabine hydrochloride]
PPCL-192 cells [1]; PPCL-192, 5 μM
  %G1: 71.08%
  %G2: 11.05%
  %S: 17.87%
PPCL-192 cells [1]; PPCL-192, 10 μM
  %G1: 74.75%
  %G2: 9.59%
  %S: 15.66%
PPCL-192 cells [1]; PPCL-192, 20 μM
  %G1: 79.91%
  %G2: 8.23%
  %S: 11.86%
PPCL-46 cells [2]; PPCL-46, 5 μM
  %G1: 72.75%
  %G2: 12.56%
  %S: 14.69%
PPCL-46 cells [2]; PPCL-46, 10 μM
  %G1: 74.08%
  %G2: 10.39%
  %S: 15.53%
PPCL-46 cells [2]; PPCL-46, 20 μM
  %G1: 76.35%
  %G2: 9.54%
  %S: 14.11%
PPCL-192 cells [3]
  Number of cells migrated: 84 ± 3.1
PPCL-46 cells [4]
  Number of cells migrated: 120 ± 3.8
[5]; day 0, WT (patient tumor) PDX mice
  Mean terminal tumor volume: 0 mm^3
[5]; day 1, WT PDX mice
  Mean terminal tumor volume: 13.9 ± 2 mm^3
[5]; day 3, WT PDX mice
  Mean terminal tumor volume: 27.8 ± 4 mm^3
[5]; day 5, WT PDX mice
  Mean terminal tumor volume: 39.7 ± 5 mm^3
[5]; day 7, WT PDX mice
  Mean terminal tumor volume: 43.5 ± 16 mm^3
[5]; day 9, WT PDX mice
  Mean terminal tumor volume: 177.8 ± 60 mm^3
[5]; day 11, WT PDX mice
  Mean terminal tumor volume: 583.2 ± 227 mm^3
[5]; day 13, WT PDX mice
  Mean terminal tumor volume: 646.9 ± 240 mm^3
[5]; day 15, WT PDX mice
  Mean terminal tumor volume: 752.6 ± 241 mm^3
[5]; day 17, WT PDX mice
  Mean terminal tumor volume: 850.8 ± 205 mm^3
[5]; day 19, WT PDX mice
  Mean terminal tumor volume: 868.2 ± 294 mm^3
[5]; day 21, WT PDX mice
  Mean terminal tumor volume: 1053 ± 86 mm^3
[5]; day 23, WT PDX mice
  Mean terminal tumor volume: 1344.7 ± 171 mm^3
[5]; day 25, WT PDX mice
  Mean terminal tumor volume: 1748.2 ± 223 mm^3
EGFR; [6]
  EGFR % Moderate Positive Cells: 0.6 ± 0.2%
  EGFR % Positive: 25 ± 4.5%
  EGFR % Strong Positive Cells: 0.5 ± 0.1%
  EGFR % Weak Positive Cells: 1.4 ± 0.1%
  EGFR %Negative Cells: 72.5 ± 1.5%
  EGFR H Score: 3.0
EGFR; [7]
  EGFR expression in representative IHC images: moderate to high
EGFR; [8]
  EGFR % Moderate Positive Cells: 3.1 ± 2.1%
  EGFR % Positive: 20 ± 10%
  EGFR % Strong Positive Cells: 2.3 ± 1.5%
  EGFR % Weak Positive Cells: 2.7 ± 0.7%
  EGFR %Negative Cells: 71.9 ± 1.6%
  EGFR H Score: 22.1
HER2; [9]
  HER2 % Moderate Positive Cells: 7.2 ± 4.3%
  HER2 % Positive: 17.2 ± 1.0%
  HER2 % Strong Positive Cells: 3.7 ± 0.8%
  HER2 % Weak Positive Cells: 9.3 ± 1.4%
  HER2 %Negative Cells: 62.6 ± 3.4%
  HER2 H Score: 31.8
HER2; [7]
  HER2 expression in representative IHC images: moderate to high
HER2; [10]
  HER2 % Positive: 19.9 ± 1.5%
  HER2 % Strong Positive Cells: 3.6 ± 1.2%
  HER2 % Weak Positive Cells: 8.9 ± 0.8%
  HER2 %Negative Cells: 57.4 ± 7.3%
  HER2 H Score: 30.9
